Here are results for one substance from US20060094003A1, “Acetylcholine-dependent current as a novel ionic target for atrial fibrillation” (priority 2004, published 2006).

One test concerns the target T1, Kir2.1 channels (Homo sapiens, UniProt P63252).
T1 sequence (P63252 1-427): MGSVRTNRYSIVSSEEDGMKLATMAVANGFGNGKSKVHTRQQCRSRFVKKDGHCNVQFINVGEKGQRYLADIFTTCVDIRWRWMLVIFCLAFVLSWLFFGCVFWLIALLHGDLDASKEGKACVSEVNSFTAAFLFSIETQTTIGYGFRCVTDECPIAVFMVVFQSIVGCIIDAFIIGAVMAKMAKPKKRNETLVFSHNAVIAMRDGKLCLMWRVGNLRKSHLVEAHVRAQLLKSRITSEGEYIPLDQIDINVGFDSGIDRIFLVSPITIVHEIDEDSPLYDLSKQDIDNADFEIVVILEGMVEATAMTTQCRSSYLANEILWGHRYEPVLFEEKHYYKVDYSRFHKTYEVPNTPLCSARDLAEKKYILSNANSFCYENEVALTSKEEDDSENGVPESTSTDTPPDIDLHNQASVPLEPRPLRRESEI
The conditions noted are these: at micromolar concentrations; Jin & Lu, 1999; cited from earlier work.

Test [1] has as its system multicellular canine atrial preparations. As to the kind of experiment: Action potential recording with standard microelectrodes in multicellular canine atrial preparations (LA and PV). Particulars: for APD90 / APD25 / APD50: after tertiapin-Q (200 nM per table title); for APD90: atropine present, 2 Hz. Here is the method:
Adult mongrel dogs of either sex (weighing about 20-35 kg) were anaesthetized with pentobarbital (30 mg kg^−1 I.V.) and artificially ventilated with room air. Hearts and adjacent lung tissue were relatively quickly excised through a left lateral thoracotomy and immersed in oxygenated Tyrode solution (composition detailed hereinbelow) at room temperature. Removal of the heart and lungs produced circulatory arrest, resulting in relatively effective and relatively humane killing. A left atrial (LA) preparation with the PVs intact was perfused via the left circumflex coronary artery, and subjected to either standard fine-tipped microelectrode recording of action potentials (APs) or cardiomyocyte isolation with collagenase-containing solutions, as previously described (Ehrlich et al. 2003). Six dogs were subjected to atrial tachycardia-induced remodeling induced by 1 week of atrial pacing at about 400 beats min^−1 after ablation of the AV node, as described in Li et al. 1999. Animal care and handling procedures followed the guidelines of the Canadian Council on Animal Care.
To isolate LA and PV cardiomyocytes, the proximal circumflex artery was cannulated and the distal ends of PV myocardial sleeves (approximately 1-1.5 cm from the PV-LA junction) were marked with silk thread prior to subsequent enzyme perfusion with collagenase (100 U ml^−1, Worthington, type II), in order to facilitate localization of PV sleeves after enzymatic digestion. […] With this method, PVs were relatively well-perfused and single cardiomyocytes could be isolated from all veins. Cardiomyocytes obtained from PVs were morphologically similar to LA cardiomyocytes isolated from the LA free wall in the same dogs. All comparisons were based on PV and LA cardiomyocytes isolated from each dog on each experimental day. After isolation, cells were stored at 4° C. and studied on the same day. For standard microelectrode experiments, intact tissue preparations including the LA and adjacent PVs were mounted in a chamber and perfused via the circumflex artery with oxygenated Krebs solution at 36±0.5° C. (see for example Kneller et al. 2002).
Fine-tipped microelectrodes (resistance 15-20 M when filled with 3 M KCl) coupled to a high input-impedance amplifier were used to record APs as described in Kneller et al. 2002.
Tyrode solution contained (mM): NaCl 136, KCl 5.4, MgCl2 1, CaCl2 1, NaH2PO4 0.33, Hepes 5 and dextrose 10 (pH 7.35 with NaOH). The cell-storage solution contained (mM): KCl 20, KH2PO4 10, dextrose 10, mannitol 40, L-glutamic acid 70, β-OH-butyric acid 10, taurine 20, EGTA 10 and 0.1% bovine serum albumin (pH 7.3, KOH). Nifedipine (5 μM) was used to suppress L-type Ca^2+ current (ICa) in all experiments. 4-Aminopyridine (4-AP, 2 mM) was added to suppress transient outward current (Ito). […] Na+ current (INa) contamination was avoided by using a HP of −40 mV for recording of hyperpolarization-induced currents and by substitution of equimolar Tris-HCl for external NaCl for tail-current recordings. When different external K^+ concentrations were applied, the osmolarity was kept constant by proportionate reduction of NaCl content in the solution. The standard internal solution contained (mM): potassium aspartate 110, KCl 20, MgCl2 1, MgATP 5, GTP (lithium salt) 0.1, Hepes 10, sodium phosphocreatine 5 and EGTA 5.0 (pH 7.3 with KOH). In experiments with K+-free internal solution, potassium aspartate was replaced by equimolar caesium aspartate and KCl by CsCl and pH was set to 7.3 with CsOH. For standard-microelectrode experiments, a solution containing (mM): NaCl 120, KCl 4, KH2PO4 1.2, MgSO4 1.2, NaHCO3 25, CaCl2 1.25 and dextrose 5 (95% O2-5% CO2, pH 7.4) was used to perfuse the tissue.
FIGS. 5E and F show representative APs before and after 100 nM tertiapin-Q in LA and PV.

The test system of the next test is IK1. The conditions noted are these: at concentrations of 8 to 30 nM; cited from earlier work.

Consider tertiapin-Q, for which the “effect on Kir2.1 channels (in words)” value at Kir2.1 channels is on record as “minimal effects”. Moreover, the “effect on AP duration in LA and PV (in words)” value in test [1] (100 nM tertiapin-Q, 200 nM atropine) is recorded as “significantly prolonged”. For the same substance, the APD90 in test [1] (LA, control 202.6 ± 2.6) came out at 242.7 ± 6.2 ms; in test [1] (PV, control 190.4 ± 4.3), 234.2 ± 9.9 ms. Moreover, the APD25 in test [1] (LA, control 78.1 ± 2.8) came out at 84.7 ± 4.0 ms; in test [1] (PV, control 71.3 ± 3.4), 86.1 ± 5.0 ms. The APD50 in test [1] (LA, control 130.2 ± 4.0) is recorded as 146.8 ± 3.2 ms; in test [1] (PV, control 104.0 ± 3.8), 126.8 ± 6.9 ms. The “effect on IK1 (in words)” value in the test on IK1 is recorded as “no effect”.
